How the values were obtained:
primary human T-cells = assay: T-cell proliferation assay (CellTiter-Glo); format: cell-based; settings: CD3 condition; for EC50: Homo sapiens, T-cell, 120 h, proliferation after 5 days, CellTiter-Glo, read-out: Tcell Proliferation CD3 EC50; for Emax proliferation (% activation): 5 days, 20 μM reference compound A1 = 100%
[1] = target: DGKzeta (hDGKzeta(1-928)-N-His) (Homo sapiens (Human), UniProt Q13574); assay: In vitro DGK inhibition assay, ADP-Glo (in house), DGKzeta; format: biochemical; settings: DLG liposomes, 50 μM ATP, 2 nM enzyme, 1 hour reaction
Sequence of DGKzeta (hDGKzeta(1-928)-N-His) (Q13574 whole entry): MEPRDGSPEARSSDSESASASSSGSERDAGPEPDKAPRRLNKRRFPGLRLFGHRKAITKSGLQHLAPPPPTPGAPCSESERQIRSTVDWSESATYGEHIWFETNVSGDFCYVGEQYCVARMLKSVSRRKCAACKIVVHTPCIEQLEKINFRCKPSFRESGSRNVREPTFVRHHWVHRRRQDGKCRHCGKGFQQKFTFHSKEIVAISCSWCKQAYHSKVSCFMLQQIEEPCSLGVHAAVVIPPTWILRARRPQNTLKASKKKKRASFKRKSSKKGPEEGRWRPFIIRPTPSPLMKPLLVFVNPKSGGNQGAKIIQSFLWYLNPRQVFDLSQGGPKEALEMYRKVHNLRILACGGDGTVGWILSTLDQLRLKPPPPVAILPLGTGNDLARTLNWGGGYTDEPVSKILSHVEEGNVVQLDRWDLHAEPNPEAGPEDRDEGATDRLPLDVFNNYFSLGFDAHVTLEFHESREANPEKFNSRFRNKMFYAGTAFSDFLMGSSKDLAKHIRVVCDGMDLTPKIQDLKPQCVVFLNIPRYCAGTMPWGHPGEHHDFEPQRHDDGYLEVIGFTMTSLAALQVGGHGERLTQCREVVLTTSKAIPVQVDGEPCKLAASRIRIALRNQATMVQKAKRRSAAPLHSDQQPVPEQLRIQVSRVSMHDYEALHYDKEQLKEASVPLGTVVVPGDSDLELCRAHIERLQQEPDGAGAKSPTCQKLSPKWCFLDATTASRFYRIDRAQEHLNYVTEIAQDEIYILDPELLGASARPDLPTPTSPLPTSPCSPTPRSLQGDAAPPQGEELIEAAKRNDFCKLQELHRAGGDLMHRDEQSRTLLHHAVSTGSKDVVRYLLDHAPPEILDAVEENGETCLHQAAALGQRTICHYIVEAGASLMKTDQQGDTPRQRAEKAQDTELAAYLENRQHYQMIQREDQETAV

Structure (SMILES)	IC50 [1]	EC50 (primary human T-cells)	Emax proliferation (% activation) (primary human T-cells)
CC(C)(C)c1cncc(-c2cc3c(cc2F)S(=O)(=O)C[C@H](N)C(=O)N3Cc2ccc(Cl)cc2)c1 [Example 2, (3R)-3-amino-7-(5-tert-butyl-3-pyridyl)-5-[(4-chlorophenyl)methyl]-8-fluoro-1,1-dioxo-2,3-dihydro-1λ6,5-benzothiazepin-4-one]		81 nM	
CC(C)(C)c1cnnc(-c2cc3c(cc2F)S(=O)(=O)C[C@H](N)C(=O)N3Cc2ccc(Cl)cc2)n1 [Example 11, (3R)-3-amino-7-(5-tert-butyl-1,2,4-triazin-3-yl)-5-[(4-chlorophenyl)methyl]-8-fluoro-1,1-dioxo-2,3-dihydro-1λ6,5-benzothiazepin-4-one]		90 nM	

Continued, in another order:

IC50 [1]	Structure (SMILES)	EC50 (primary human T-cells)	Emax proliferation (% activation) (primary human T-cells)
9880 nM	CC(C)(C#N)c1cncc(-c2cc3c(cc2F)S(=O)(=O)C[C@H](N)C(=O)N3Cc2ccc(-c3noc(C(F)(F)F)n3)cc2)c1 [Example 23, 2-[5-[(3R)-3-amino-8-fluoro-1,1,4-triketo-5-[4-[5-(trifluoromethyl)-1,2,4-oxadiazol-3-yl]benzyl]-2,3-dihydro-1λ6,5-benzothiazepin-7-yl]-3-pyridyl]-2-methyl-propionitrile]	933 nM	204 % activation
43100 nM	CC(C)(c1cncc(-c2cc3c(cc2F)S(=O)(=O)C[C@H](N)C(=O)N3Cc2ccc(-c3noc(C(F)(F)F)n3)cc2)c1)S(C)(=O)=O [Example 25, (3R)-3-amino-8-fluoro-1,1-diketo-7-[5-(1-mesyl-1-methyl-ethyl)-3-pyridyl]-5-[4-[5-(trifluoromethyl)-1,2,4-oxadiazol-3-yl]benzyl]-2,3-dihydro-1λ6,5-benzothiazepin-4-one]	526 nM	120 % activation
9910 nM	COc1ccc(-c2ccc(CN3C(=O)[C@@H](N)CS(=O)(=O)c4cc(F)c(-c5cnc(C)c(C)c5)cc43)cc2)cc1 [Example 28, (3R)-3-amino-7-(5,6-dimethyl-3-pyridyl)-8-fluoro-5-[[4-(4-methoxyphenyl)phenyl]methyl]-1,1-dioxo-2,3-dihydro-1λ6,5-benzothiazepin-4-one]	81 nM	155 % activation
